Laboratory results: patent US6884907B2, “Hydroxamic acids and acyl hydroxamines as naaladase inhibitors” (Guilford Pharmaceuticals Inc., priority 2001, dated 2005)

Legend:
[1] = test system: rats with transected optic nerve; assay: Optic nerve transection (optic nerve fiber counting); format: in vivo, Brown Norway rats (Rattus norvegicus); details: 2 weeks after transection
Procedure: All experiments complied with the Association for Research in Vision and Ophthalmology Statement for the Use of Animals in Ophthalmic and Vision Research. 82 male Brown Norway rats (Rattus norvegicus), each weighing approximately 250 gm, were treated using procedures approved by the Animal Care Committee of the Johns Hopkins University School of Medicine. The rats were housed with a 12 hour light/12 hour dark cycle and fed ad libitum.
OPTIC NERVE TRANSECTION: The optic nerve was transected unilaterally in 26 rats under intraperitoneal pentobarbital anesthesia. The conjunctiva was opened with scissors and the optic nerve exposed by traction on extraocular muscles. […]
The area of the optic nerve cross-section was measured by outlining its outer border at 10× magnification on an image analysis system (Universal Imaging Corp., Westchester, Pa.) with Synsys digital camera and Metamorph software. Three area measurements were taken and the mean value was determined. […] These were edited to eliminate non-neural objects and the size of each axon internal to the myelin sheath (its minimum diameter) and the density of axons/square mm were calculated for each image and nerve. […] The number of axons counted among the 10 images was an approximately 20% sample of the 80-90,000 axons in normal rat nerves. […]

[2] = test system: Transgenic HD mice of the N171-82Q strain; assay: Transgenic mouse model of Huntington's disease: behavioral testing (rotarod, locomotion); format: in vivo
Procedure: Transgenic HD mice of the […]-[…] strain and non-transgenic littermates were treated with NAALADase inhibitor Compound B (30 mg/kg) or a vehicle from 10 weeks of age. The mice were placed on a rotating rod (“rotarod”). The length of time at which the mouse fell off the rotarod was recorded as a measure of motor coordination. […] The treatment with Compound B had no effect on the rotarod performance of normal non-HD mice. The total distance traveled by the mice was also recorded as a measure of overall locomotion.

[3] = test system: transgenic HD mice (N171-82Q); assay: Transgenic mouse model of Huntington's disease: survival; format: in vivo
Procedure: The effects of Compound B and vehicle on the survival of transgenic HD mice (N171-82Q) were evaluated. Thirteen mice (six male and seven female) were assigned to the Compound B treatment group, and fourteen mice (six male and eight female) were assigned to the vehicle treatment group. Treatment was continued until all the mice died.

[4] = test system: TGF-β; assay: Effect of NAALADase inhibition on TGF-β in in vitro ischemia model; format: cell-based; details: ischemic cell cultures
Procedure: A NAALADase inhibitor, Compound C, was added to ischemia cell cultures to determine its effect on TGF-β levels during stroke.
TGF-β neutralizing antibodies were then added to the ischemic cell cultures.

[5] = test system: TGF-β; assay: Effect of NAALADase inhibition on TGF-β in in vivo ischemia model (MCAO); details: MCAO rats
Description: The effect of TGF-β neutralizing antibodies on the neuroprotective effect of Compound C was also studied in rats following MCAO.

[6] = test system: rats with sciatic nerve ligation; assay: Neuropathic pain in chronic constriction injury (CCI) model; format: in vivo; details: 50 mg/kg i.p. daily starting 10 days post surgery, versus vehicle, FIG. 8
Procedure: Sciatic nerve ligation, consisting of 4 ligatures tied loosely around the sciatic nerve at 1 mm intervals proximal to the nerve trifurcation, was performed on rats. […] The rats were habituated to a Hargreaves apparatus. An infrared heat source was directed onto the […] surface of each rat's hindpaws and the time taken for the rat to withdraw its paws was noted. The difference in scores between the latency of the response for the paw on the operated side versus the paw on the unoperated control side was determined. The rats received either Compound C (50 mg/kg i.p. daily) or a vehicle starting 10 days post surgery. […] Normal (unoperated) rats had approximately equal latencies for both paws. This effect was significant starting at 11 days of drug treatment and persisted through to the end of the study (for 21 days of daily dosing).

[7] = test system: STZ-induced diabetic rats; assay: Neuropathic pain in STZ model (thermal nociception, Hargreaves apparatus); format: in vivo, Male Sprague-Dawley rats; details: 10 mg/kg i.p. daily, treatment started 45 days post-STZ, FIGS. 7A and 7B
Procedure: Male Sprague-Dawley rats (200-225 g) were rendered diabetic by intravenous administration of streptozotocin (“STZ”, 70 mg/kg in phosphate buffered saline). Diabetic animals were divided into five groups: one group receiving Compound A (10 mg/kg or 1 mg/kg), Compound D (10 mg/kg or 1 mg/kg) or vehicle. Another group of animals (non-STZ treated) served as non-diabetic controls. Drug/vehicle treatment was started in diabetic animals 45 days post-STZ administration. STZ-induced diabetic rats were tested for sensitivity to a heat source as soon as blood glucose levels rose to 320 mg/dl or above (30 days post STZ). The rats were then acclimated to a Hargreaves apparatus and thermal nociception was monitored using an infrared heat source directed into the dorsal surface of the hindpaw, and the time taken for the animal to remove its paw noted to the nearest 0.1 seconds (see Hargreaves et al., supra, for detailed experimental method). The intensity of the beam source was adjusted such that the mean latency for control animals (non-STZ treated) was approximately 10 seconds. Each animal was tested 8 times and the mean difference score (between mean non-diabetic control latency and mean diabetic latency) are graphically presented in FIGS. 7A and 7B.

[8] = test system: BB/W diabetic rats; assay: Progression of neuropathic pain and nerve conduction deficits in BB/W model; format: in vivo, Male BB/W rats
Description: Male BB/W rats (BRI, Mass) spontaneously develop a cell mediated autoimmune destruction of pancreatic B cells, resulting in onset of insulin-dependent (Type I) diabetes (Guberski 1994). […] This renders them valuable for experimental trials of new compounds for future treatments of this major disorder. In the present study, Compound D and Compound A were examined for their ability to alter the progression of diabetic neuropathy. The rats received daily injection of Compound D or Compound A (10 mg/kg i.p.) or vehicle, starting at the onset of diabetes (hyperglycemia) and up to 6 months thereafter. Another group of non-diabetic rats also receiving vehicle were tested. All animals were continuously monitored for body weight, urine volume, blood sugar and glycated haemoglobin. In the first month of the study, all animals were tested for thermal nociception in a Hargreaves apparatus, weekly. After the first month this was done biweekly and then monthly. The testing consists of directing an infrared heat source onto the dorsal surface of the rat hindpaw and noting the time taken for the animal to remove its paw (see Hargreaves et al., supra, for a description of the experimental method). Each animal was tested 8 times and the mean withdrawal latency noted.
Nerve conduction velocity was also measured every two weeks through the first eight weeks of treatment and every month thereafter through to the six months of treatment (see De Koning et al., Peptides, Vol. 8, No. 3, pp. 415-22 (1987) for a description of the experimental method). […] This was apparent starting at 8 weeks of treatment and persisted to a similar degree through to the six month termination point of the study.

[9] = test system: STZ-diabetic animals; assay: Diabetic neuropathy in STZ model (nerve conduction velocity); format: in vivo, rats; details: 10 mg/kg daily
Procedure: Motor and sensory nerve conduction velocity was also measured in STZ-diabetic animals after 4, 8 and 12 weeks of treatment (see De Koning et al., supra, for a description of the experimental method). Briefly, stimulating needle electrodes were inserted close to the sciatic and tibial nerves with recording electrodes being placed subcutaneously over the distal foot muscles, in anesthetized rats.

[10] = test system: transgenic G1H mice; assay: Onset of ALS in SOD transgenic mice model of FALS; format: in vivo
Procedure: The effect of NAALADase inhibitors on the onset of ALS was tested using the superoxide dismutase (“SOD”) transgenic mice model of familial Amyotrophic Lateral Sclerosis (“FALS”), which is detailed in Gurney, M., Annals of Neurology (1996) 39:147-157, and otherwise well known in the art. One month old transgenic G1H mice were treated with daily intraperitoneal injections of a vehicle (50 mM HEPES-buffered saline) or a NAALADase inhibitor (50 mg/kg of Compound A). Clinical symptoms of the mice were monitored daily. The onset of clinical disease was scored by examining each mouse for its shaking of limbs when suspended in the air by its tail, cross spread of spinal reflexes, hindlimb paralysis, body weight and wheel running activity.

SMILES: O=C(O)CCC(CCCS)C(=O)O (stereo not shown) [Compound B, 2-(3-sulfanylpropyl)pentanedioic acid]
- remaining axons relative to saline-treated rats [1]: twice
- rotarod performance ([2]; normal non-HD mice, 30 mg/kg): no effect
- rotarod performance (time on rotarod) ([2]; transgenic HD mice, 30 mg/kg from 10 weeks of age, versus vehicle, FIG. 31): stayed longer on the rotarod
- median survival time ([3]; all treated transgenic HD mice, vehicle 158.5 days, p-value=0.07, FIG. 33): 184 days
- survival time ([3]; female transgenic HD mice versus vehicle, p-value=0.03, FIG. 35): significantly prolonged survival time

SMILES: O=C(O)CCC(CP(=O)(O)O)C(=O)O (stereo not shown) [Compound C, 2-(phosphonomethyl)pentanedioic acid]
- TGF-β1 concentration ([4]; FIG. 1): increased concentrations
- TGF-β2 concentration ([4]; FIG. 2): increased concentrations
- neuroprotective effect in presence of TGF-β neutralizing antibodies ([4]; FIG. 3): blocked the neuroprotective effect
- neuroprotective effect in presence of FGF antibody ([4]; FIG. 4): did not block the neuroprotective effect
- neuroprotective effect in presence of TGF-β neutralizing antibodies ([5]; FIG. 5): significantly attenuated the neuroprotective effect
- TGF-β1 levels ([5]; during occlusion and reperfusion, microdialysis, FIG. 6): significant rise
- difference scores between the two paws (withdrawal latency) [6]: dramatically normalized

SMILES: O=C(O)CCC(CP(=O)(O)Cc1c(F)c(F)c(F)c(F)c1F)C(=O)O (stereo not shown) [Compound A, 2-[[(2,3,4,5,6-pentafluorobenzyl)hydroxyphosphinyl]methyl]pentanedioic acid]
- hyperalgesic response (withdrawal latency difference score) [7]: completely reversed
- nerve conduction velocity ([8]; 10 mg/kg daily, versus diabetic vehicle controls, from 8 weeks to six months, FIG. 12): significantly less severe nerve conduction deficits
- withdrawal latency ([8]; 10 mg/kg i.p. daily, versus diabetic vehicle-treated rats, from 4 weeks through six months of treatment, FIG. 11): longer withdrawal latencies
- sensory nerve conduction velocity ([9]; after 8 weeks, FIG. 9B): significant improvement
- motor nerve conduction velocity ([9]; after 12 weeks, FIG. 9A): significant improvement
- Difference in disease onset (treated versus vehicle) ([10]; Study 1, 50 mg/kg daily i.p.): 32
- Disease Onset For Compound A Treated Mice ([10]; Study 1, 50 mg/kg daily i.p., vehicle 189): 221 days
- Difference in disease onset (treated versus vehicle) ([10]; Study 2, 50 mg/kg daily i.p.): 25
- Disease Onset For Compound A Treated Mice ([10]; Study 2, 50 mg/kg daily i.p., vehicle 141): 166 days
- remaining axons relative to saline-treated rats [1]: 3 times
